# In PubChem BioAssay AID2060505 (Molecular Pharmacology Branch, DTP, NCI, 2025):
# Test system: 633275-114-R-J1-PDC complex spheroids, viability
# Assay: Anticancer human tumor 633275-114-R-J1-PDC patient-derived endometrial adenocarcinoma cell line growth inhibition [GQUAD]
# Conditions: for IC50: curve of first compound; for viability, T/C: stronger effect = lower value
# Text: DNA G-quadruplex Stabilizer Agents in Combinations in Complex Spheroids
# A high-throughput screen of multi-cell type tumor spheroids was designed to identify active combinations of DNA G-quadruplex stabilizer agents and targeted small molecules. Complex spheroids include a stromal component modeled by human endothelial cells (HUVEC) and fibroblasts modeled by human mesenchymal stem cells (MSCs). The concentration ranges selected for each drug and investigational agent were based upon clinically achievable concentrations if the clinical Cmax of the agent was known.
# Compounds. The drugs and investigational agents: pidnarulex (CX-5461; NSC782164), APTO-253 (NSC789042), BRACO-19 (NSC847499), peposertib (NSC802822), ceralasertib (NSC780249), elimusertib (NSC800525), camonsertib (NSC841442), AZD-1390 (NSC803789), olaparib (NSC753686), talazoparib (NSC767125), ART-558 (NSC835418), sotorasib (NSC818433), MRTX-1133 (NSC836407), SN-38 (NSC673596), topotecan (NSC609699), etoposide (NSC141540), doxorubicin (NSC123127), gemcitabine (NSC613327), 5-fluorouracil (NSC19893), paclitaxel (NSC125973), vemurafenib (NSC761431), panobinostat (NSC761190), R-306465 (JNJ-16241199; NSC773264), adavosertib (NSC754352), TP-3654 (NSC805149), carboplatin (NSC241240), KSQ-4279 (NSC840948), and staurosporine (NSC755774) were obtained from the National Cancer Institute (NCI) Developmental Therapeutics Program Chemical Repository (34). The FDA-approved anticancer drug set is available from the NCI Developmental Therapeutics Program. […] The stock solutions were prepared in dimethyl sulfoxide (DMSO, Sigma-Aldrich, St. Louis, MO, cat. D2650) at 800-fold the tested concentration and stored at -70 degrees C prior to their use. All drugs and investigational agents were tested over a range starting from a high concentration at or near the clinical Cmax and decreasing in half-log increments. If the clinical Cmax for an agent had not been determined, the highest concentration tested was 10 microM.
# 2.3 Cell Culture. All cells were maintained in an incubator at 37 degrees C and 5% CO2 with 95% humidity. The PDC lines were cultured according to standard operating procedures established by the NCI PDMR. All PDCs were thawed and cultured in Matrigel-coated flasks prepared with a working solution of 1X Ham's F-12 nutrient mix, without supplementation (Invitrogen, cat. 11765054), 100 U/mL penicillin-streptomycin (Invitrogen, cat. 15140122), and 2.5% Matrigel (Corning Inc., cat. 354248) for the first three passages. The 857933-349-R-J2-PDC line was cultured in 6C/Colon 1B media, which includes advanced DMEM/F-12 (Thermo Fisher Scientific, cat. 12634028), 10 mM HEPES (Thermo Fisher Scientific, cat. 15630080), 1X GlutaMAX supplement (Thermo Fisher Scientific, cat. 35050061), 0.1 mg/mL primocin (InvivoGen, cat. ant-pm-2), 10% defined fetal bovine serum, heat inactivated (HyClone Laboratories Inc., cat. SH30070.03HI), 50% L-WRN conditioned media (ATCC, cat. CRL-3276), 1.25 mM N-Acetyl-L-cysteine (Sigma-Aldrich, cat. A9165), 10 mM nicotinamide (Sigma-Aldrich, cat. N0636), 1X B-27 supplement (Thermo Fisher Scientific, cat. 17504044), 1X N-2 supplement (Thermo Fisher Scientific, cat. 17502048), 10 microM Y-27632 dihydrochloride (Tocris Bioscience, cat. 1254), and 50 ng/mL human EGF recombinant protein (Thermo Fisher Scientific, cat. PHG0311). The 485176-168-R4-J1-PDC line was cultured in Panc media, which includes all 6C/Colon 1B media components plus 100 ng/mL human FGF-10 (Thermo Fisher Scientific, cat. 100-26), 500 nM SB-431542 (Selleckchem, cat. S1067), and gastrin (Tocris, cat. 3006).
# […]
# [1] = second compound 0.0316 µM, first compound 0.0316 µM
# [2] = second compound 0.0316 µM, first compound 0.316 µM
# [3] = second compound 0.1 µM, first compound 0.0316 µM
# [4] = second compound 0.1 µM, first compound 0.316 µM
# [5] = second compound 0.316 µM, first compound 0.0316 µM
# [6] = second compound 0.316 µM, first compound 0.316 µM
# [7] = second compound 1 µM, first compound 0.0316 µM
# [8] = second compound 1 µM, first compound 0.316 µM
# [9] = second compound 3.16 µM, first compound 0.0316 µM
# [10] = second compound 3.16 µM, first compound 0.316 µM
# [11] = second compound 10 µM, first compound 0.0316 µM
# [12] = second compound 10 µM, first compound 0.316 µM
# 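Further: spheroids exposed to the agents for seven days.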
# 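Wherever viability, T/C is given: percent of DMSO vehicle control viability which is 100%.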
compound,measurement,setting,value
COc1cc(C2c3cc4c(cc3C(OC3OC5COC(C)OC5C(O)C3O)C3COC(=O)C23)OCO4)cc(OC)c1O (centres undefined) + CN(C)c1ccc(Nc2c3ccc(NC(=O)CCN4CCCC4)cc3nc3cc(NC(=O)CCN4CCCC4)ccc23)cc1,IC50,second compound 0.0316 µM,295 nM
same,IC50,second compound 0.1 µM,284 nM
same,IC50,second compound 0.316 µM,296 nM
same,IC50,second compound 1 µM,334 nM
same,IC50,second compound 3.16 µM,171 nM
same,IC50,second compound 10 µM,< 31.6 nM
same,"viability, T/C",[1],81.6%
same,"viability, T/C","second compound 0.0316 µM, first compound 0.1 µM",64.5%
same,"viability, T/C",[2],47.3%
same,"viability, T/C","second compound 0.0316 µM, first compound 1 µM",40.9%
same,"viability, T/C","second compound 0.0316 µM, first compound 3.16 µM",33.7%
same,"viability, T/C","second compound 0.0316 µM, first compound 10 µM",30.3%
same,"viability, T/C",[3],80.2%
same,"viability, T/C","second compound 0.1 µM, first compound 0.1 µM",64.8%
same,"viability, T/C",[4],44.7%
same,"viability, T/C","second compound 0.1 µM, first compound 1 µM",41.4%
same,"viability, T/C","second compound 0.1 µM, first compound 3.16 µM",32.6%
same,"viability, T/C","second compound 0.1 µM, first compound 10 µM",26.9%
same,"viability, T/C",[5],84.3%
same,"viability, T/C","second compound 0.316 µM, first compound 0.1 µM",69.7%
same,"viability, T/C",[6],48.4%
same,"viability, T/C","second compound 0.316 µM, first compound 1 µM",36.8%
same,"viability, T/C","second compound 0.316 µM, first compound 3.16 µM",38.4%
same,"viability, T/C","second compound 0.316 µM, first compound 10 µM",29.8%
same,"viability, T/C",[7],75.4%
same,"viability, T/C","second compound 1 µM, first compound 0.1 µM",59.5%
same,"viability, T/C",[8],52.1%
same,"viability, T/C","second compound 1 µM, first compound 1 µM",38.7%
same,"viability, T/C","second compound 1 µM, first compound 3.16 µM",36.7%
same,"viability, T/C","second compound 1 µM, first compound 10 µM",26.7%
same,"viability, T/C",[9],71.7%
same,"viability, T/C","second compound 3.16 µM, first compound 0.1 µM",53.7%
same,"viability, T/C",[10],43.6%
same,"viability, T/C","second compound 3.16 µM, first compound 1 µM",36.4%
same,"viability, T/C","second compound 3.16 µM, first compound 3.16 µM",37.5%
same,"viability, T/C","second compound 3.16 µM, first compound 10 µM",26%
same,"viability, T/C",[11],25.5%
same,"viability, T/C","second compound 10 µM, first compound 0.1 µM",19.9%
same,"viability, T/C",[12],18.5%
same,"viability, T/C","second compound 10 µM, first compound 1 µM",17.5%
same,"viability, T/C","second compound 10 µM, first compound 3.16 µM",16.3%
same,"viability, T/C","second compound 10 µM, first compound 10 µM",10.7%
Cn1ncnc1[C@H]1c2n[nH]c(=O)c3cc(F)cc(c23)N[C@@H]1c1ccc(F)cc1 + CN(C)c1ccc(Nc2c3ccc(NC(=O)CCN4CCCC4)cc3nc3cc(NC(=O)CCN4CCCC4)ccc23)cc1,IC50,second compound 0.0316 µM,> 316 nM
same,IC50,second compound 0.1 µM,> 316 nM
same,IC50,second compound 0.316 µM,> 316 nM
same,IC50,second compound 1 µM,> 316 nM
same,IC50,second compound 3.16 µM,> 316 nM
same,IC50,second compound 10 µM,< 0.999 nM
same,"viability, T/C","second compound 0.0316 µM, first compound 0.000999 µM",103%
same,"viability, T/C","second compound 0.0316 µM, first compound 0.00316 µM",95.6%
same,"viability, T/C","second compound 0.0316 µM, first compound 0.00999 µM",82%
same,"viability, T/C",[1],76.8%
same,"viability, T/C","second compound 0.0316 µM, first compound 0.0999 µM",65.4%
same,"viability, T/C",[2],55.5%
same,"viability, T/C","second compound 0.1 µM, first compound 0.000999 µM",97.6%
same,"viability, T/C","second compound 0.1 µM, first compound 0.00316 µM",101%
same,"viability, T/C","second compound 0.1 µM, first compound 0.00999 µM",98%
same,"viability, T/C",[3],74.8%
same,"viability, T/C","second compound 0.1 µM, first compound 0.0999 µM",70.6%
same,"viability, T/C",[4],63.1%
same,"viability, T/C","second compound 0.316 µM, first compound 0.000999 µM",95.2%
same,"viability, T/C","second compound 0.316 µM, first compound 0.00316 µM",102%
same,"viability, T/C","second compound 0.316 µM, first compound 0.00999 µM",86.5%
same,"viability, T/C",[5],86.4%
same,"viability, T/C","second compound 0.316 µM, first compound 0.0999 µM",71.2%
same,"viability, T/C",[6],52.9%
same,"viability, T/C","second compound 1 µM, first compound 0.000999 µM",102%
same,"viability, T/C","second compound 1 µM, first compound 0.00316 µM",96.2%
same,"viability, T/C","second compound 1 µM, first compound 0.00999 µM",91.9%
same,"viability, T/C",[7],77.1%
same,"viability, T/C","second compound 1 µM, first compound 0.0999 µM",63.6%
same,"viability, T/C",[8],54.4%
same,"viability, T/C","second compound 3.16 µM, first compound 0.000999 µM",84.9%
same,"viability, T/C","second compound 3.16 µM, first compound 0.00316 µM",91.2%
same,"viability, T/C","second compound 3.16 µM, first compound 0.00999 µM",79.7%
same,"viability, T/C",[9],70%
same,"viability, T/C","second compound 3.16 µM, first compound 0.0999 µM",59.3%
same,"viability, T/C",[10],49.6%
same,"viability, T/C","second compound 10 µM, first compound 0.000999 µM",31.5%
same,"viability, T/C","second compound 10 µM, first compound 0.00316 µM",35.2%
same,"viability, T/C","second compound 10 µM, first compound 0.00999 µM",35.4%
same,"viability, T/C",[11],29.7%
same,"viability, T/C","second compound 10 µM, first compound 0.0999 µM",26.3%
same,"viability, T/C",[12],22%
